Patent publication US6376506B1, “Sulfamide-metalloprotease inhibitors” (Syntex (U.S.A.) LLC, priority 1997, dated 2002)

Key:
[1] = target: T1, human collagenase-1 catalytic domain (Homo sapiens, UniProt P03956); assay: MMP inhibition in vitro, human collagenase-1; format: biochemical; settings: MCA-Pro-Leu-Gly-Leu-DPA-Ala-Arg-NH2 hydrolysis at 37° C.; read-out: Collagenase-I IC50
T1 construct: the collagenase-1 catalytic domain was released by treatment with 1 mM of aminophenylmercuric acetate (APMA); ubiquitin (cleaved yes); made in house; host or cells: E. coli
T1 sequence (P03956 100-269 limits assumed): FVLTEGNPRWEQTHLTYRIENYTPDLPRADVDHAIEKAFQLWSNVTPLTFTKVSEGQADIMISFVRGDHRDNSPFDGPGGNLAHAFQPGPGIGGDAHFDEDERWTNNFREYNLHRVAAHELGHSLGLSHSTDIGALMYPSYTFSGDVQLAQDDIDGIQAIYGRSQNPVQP
Method: The catalytic domain of human collagenase-1 was expressed as a fusion protein with ubiquitin in E. Coli as described in Gehring, E. R. et al., J. Biol. Chem., 270, 22507, (1995). After purification of the fusion protein, the collagenase-1 catalytic domain was released by treatment with 1 mM of aminophenylmercuric acetate (APMA) for 1 hour at 37° C. and then purified by zinc chelate chromatography.
(§1) The matrix metalloprotease inhibitory activity of compounds of this invention in vitro was determined based on the hydrolysis of MCA-Pro-Leu-Gly-Leu-DPA-Ala-Arg-NH2 (Bachem, Inc.) at 37° C. as described in Knight, C. G., et al., FEBS Lett., 296, 263-266 (1992).
(§2) The matrix metalloprotease enzyme was diluted with assay buffer (50 mM Tricine pH 7.5, 200 mM NaCl, 10 mM CaCl2, and 0.005% Brij-35) containing 10 μmole of above substrate dissolved in DMSO. Compounds of the invention dissolved in DMSO or only DMSO (control samples) were added such that the final DMSO concentration in all assays was 2.5%. The fluorescence changes were monitored with a Perkin-Elmer LS-50B flourimeter using an excitation wavelength of 328 nm and an emission wavelength of 393 nm.

[2] = target: T2, human collagenase-3 catalytic domain (Homo sapiens, UniProt P45452); assay: MMP inhibition in vitro, human collagenase-3; format: biochemical; settings: MCA-Pro-Leu-Gly-Leu-DPA-Ala-Arg-NH2 hydrolysis at 37° C.; read-out: Collagenase-III IC50
T2 construct: After purification, the catalytic domain was released by treatment with 1 mM APMA for 1 hour at 37° C; ubiquitin (N, cleaved yes); made in house; host or cells: E. coli
Method: The propeptide and catalytic domain portion of human collagcenase-3 was expressed in E. Coli as an N-terminal fusion protein with ubiquitin. After purification, the catalytic domain was released by treatment with 1 mM APMA for 1 hour at 37° C., and then purified by zinc chelate chromatography.
as §1, §2

| IC50 [1] | melting point | IC50 [2] | Structure (SMILES) |
| --- | --- | --- | --- |
| 550 nM | 80.6 to 85.7 °C | 660 nM | CC(C)[C@H](C(=O)NO)N(Cc1ccccc1)S(=O)(=O)N1CCCCC1 [compound 1, N-hydroxy-2-(R)-[benzyl-(piperdine-1-sulfonyl)amino]-3-methybutyramide] |
| 7600 nM | 149 to 156 °C | 0.73 nM | CC(C)[C@@H](NS(=O)(=O)N1CCN(c2ccc(OCc3ccccc3)cc2)CC1)C(=O)NO [compound 74, N-hydroxy-2-(R)-{[4-(4-benzyloxyphenyl)piperazine-1-sulfonyl]amino}-3-methylbutyramide] |
| 338 nM | 86 to 86.7 °C | 0.92 nM | O=C(NO)[C@H](CSCc1ccccc1)NS(=O)(=O)N1CCN(c2ccc(Cl)cn2)CC1 [compound 102] |
| 20000 nM | 141 to 142.3 °C | 18 nM | CC(C)[C@@H](NS(=O)(=O)N1CCC(c2nc(-c3ccccc3)c[nH]2)CC1)C(=O)NO [compound 133] |
| 23 nM | 74.3 to 75.3 °C | 0.073 nM | CC(C)[C@@H](NS(=O)(=O)N1CCC(Oc2ccc(F)cc2)CC1)C(=O)NO [compound 179] |
| 67 nM | 84.4 to 86.4 °C | 0.063 nM | O=C(c1ccc(Cl)cc1)C1CCN(S(=O)(=O)N2CCCC[C@@H]2C(=O)NO)CC1 [compound 242] |
| 530 nM | 146.1 to 146.6 °C | 6.6 nM | O=C(NO)C1(NS(=O)(=O)N2CCN(c3ccc(Cl)cc3)CC2)CCCCC1 [compound 345, N-hydroxy-1-{[4-(4-chlorophenyl)piperazine-1-sulfonyl]amino}-cyclohexane-1-carboxamide] |
| 250 nM | 90.7 to 93 °C | 0.19 nM | C[C@@H](NS(=O)(=O)N1CC=C(c2ccc(Cl)cc2)CC1)C(=O)NO [compound 401] |

| Structure (SMILES) | IC50 [1] | melting point | IC50 [2] |
| --- | --- | --- | --- |
| O=C(NO)C1CCCCN1S(=O)(=O)N1CCC(c2c[nH]c3cc(Cl)ccc23)CC1 (racemic) [compound 256] | 26000 nM | 143 to 151 °C | 33 nM |
| O=C(NO)C1CCCCN1S(=O)(=O)N1CCC(c2noc3cc(F)ccc23)CC1 (racemic) [compound 286] | 29 nM | 145.8 to 146.9 °C | 0.063 nM |
| CC(C)[C@@H](NS(=O)(=O)N1CCN(c2ccc(Cl)cn2)CC1)C(=O)NO [compound 50, N-hydroxy-2-(R)-{[4-(5-chloropyridin-2yl)piperazine-1-sulfonyl]amino}-3-methylbutyramide] | 220 nM | 146.7 to 147 °C | 1.3 nM |
| CC(C)[C@@H](NS(=O)(=O)N1CCN(c2ccc(Cl)cc2)CC1)C(=O)NO [compound 51, N-hydroxy-2-(R)-{[4-(4-chlorophenyl)piperazine-1-sulfonyl]amino}-3-methylbutyramide] | 490 nM | 154.1 to 154.8 °C | 2.6 nM |
| CN(C)C(=O)N1CCN(S(=O)(=O)N2CCC(c3c[nH]c4c(F)c(F)c(F)c(F)c34)CC2)[C@@H](C(=O)NO)C1 [compound 309] | > 50000 nM | 181 to 184 °C | 500 nM |
